Measured values reported in patent US20180344725A1, “QUINOLONE CHALCONE COMPOUNDS AND USES THEREOF” (priority 2015, published 2018).

Experiments:
RPMI-8226 (myeloma) = test: SRB-based cytotoxicity assay; format: cell-based; details: 72 hours
Procedure: (§1) For (anti)proliferation assays, 4,000-5,000 cells/well of the 96-well clustered dish were incubated for 16 hours, as described previously (Hu et al., 2008; Skehan et al., 1990). After 16 hours, culture medium was replaced with fresh medium containing different dilutions of test compounds dissolved in DMSO. Some wells were treated with 100 μl of 10% trichloroacetic acid (TCA) as a negative control and sham (medium with dimethyl sulfoxide; DMSO) treated cells were used as a positive control. After 72 hours post-incubation, medium was removed and cells were fixed with 10% TCA at 4° C. for 1 hour. TCA was removed and cells were washed with cold tap water, and plate was air-dried, followed by addition of 50 μl of 0.4% SRB staining solution to each well. After 30 minutes incubation, SRB staining solution was removed. Cells were washed with 1% acetic acid solution, and then washed with tap water to remove unbound staining solution, followed by air-drying. 200 μl of 10 mM (pH10.5) trizma base buffer was added to each well to solubilise macromolecules. SRB stained macromolecules were determined at a 540 nm wavelength using an automated plate reader (Synergy H4 Hybrid Multi-Mode Microplate Reader, BioTek, Winooski, Vt.). Cell growth (inhibition) was calculated by the following formula:
(§2) % cells proliferation=[(AT−CT)/(ST−CT)]×100
(§3) wherein AT=absorbance of treated cells, CT=absorbance of negative control cells, and ST=absorbance of sham treated cells. IC50 values were calculated from sigmoidal dose-response curves generated by two independent biological replicates, with quadruplicate in each set by using Graph Pad Prism v.5.04 software. […] The combinational index (CI) was calculated as described previously (Chou 2006). If the CI values were less than, equal to or more than 1, it indicates a synergistic, additive or antagonistic effect respectively (Chou 2006). CI values were determined from four independent experiments.

184B5 = test: SRB-based cytotoxicity assay; format: cell-based; details: Homo sapiens, 184B5 non-cancer
Procedure: as §1, §2, §3

MCF-10A = test: SRB-based cytotoxicity assay; format: cell-based; details: for IC50: Homo sapiens; for Cell survival rate: MCF10A, 0.39 μM
Procedure: as §1, §2, §3

HeLa = test: SRB-based cytotoxicity assay; format: cell-based; details: for IC50: HeLa
Procedure: as §1, §2, §3

Liver mitotic cells = format: in vivo, mice; details: 30 days; 10 mg paclitaxel, 30 mg CTR, or paclitaxel (5 mg) + CTR (15 mg)
Procedure: ATH490 athymic mice were treated as indicated in the listed concentrations for 30 days (FIG. 45A), and then the liver cell proliferation analyzed by examining the number of mitotic cells (white arrows in FIG. 45A). “Tax” denotes paclitaxel. The numbers in the brackets in (FIG. 45B) are mg/kg body weight. […] However, this small increase is considered normal as the AST/ALT ratio is <3 (Table 14).

[1] = Toxicology analysis of spleen (H&E); format: in vivo, mice; set-up: key to Red Pulp (RP): Myeloid elements: ↑↑: Double and single upward arrows indicate highly and moderately increased, respectively; ↑: Double and single upward arrows indicate highly and moderately increased, respectively; details: 30 days, Paclitaxel 10 mg/kg, CTR 30 mg/kg, or Tax (5) + CTR (15)
Procedure: Animals were monitored for food and water consumption every day, and their body weights and tumor volumes were measured twice per week. Tumor volumes were measured with a digital caliper and were determined by using the following formula: ½ length×width^2. Blood samples were collected via cardiac puncture and processed further for ALT and AST measurements. The animals were then immediately euthanized by carbon dioxide. Tumors and vital organs (spleen, kidney, liver and lung) were collected and fixed in 10% buffered formalin at 4° C. overnight before being processed for paraffin embedding. The paraffin-embedded blocks were then cut into 4-5 μm thick sections. Each section of tumors and organs was stained with hematoxylin and eosin (H&E).
Changes in body weight, hemoglobin (Hb) and the amount and ratio of alanine transaminase (ALT)/aspartate transaminase (AST) were used to measure toxic effects. In addition, vital organs (liver, spleen, kidney and lung) were analyzed by […] after they were harvested, fixed, processed, paraffin-embedded, sectioned, and stained as described above.
ATH490 athymic mice were sham-treated (vehicle only) or treated with compounds of the indicated doses for 30 days, followed by toxicity analysis after spleen tissues were H & E stained. The numbers in the brackets are mg per kg of body weight. Arrows indicate the presence of macrophages in the red pulp (RP). Images were taken using a Zeiss EPI-fluorescent microscope (10× objective). Drug administration was carried out as described in Table 11.

[2] = MCF-10A, MCF10A non-cancer, 72 hours, Table 4
[3] = MCF-10A non-cancer, SRB, Table 2

Row | Structure (SMILES) | IC50 (RPMI-8226 (myeloma); Table 4) | IC50 (184B5; 72 hours, Table 4) | IC50 (MCF-10A; [2]) | IC50 (HeLa; 72 hours, Table 4) | mitotic index in the liver (Liver mitotic cells) | Capsule [1] | Red Pulp (RP): Myeloid elements [1] | White pulp (WP) [1] | IC50 (RPMI-8226 (myeloma); Homo sapiens) | IC50 (184B5; SRB, Table 2) | IC50 (MCF-10A; [3]) | Cell survival rate (MCF-10A; 72 hours) | IC50 (HeLa; Homo sapiens, SRB, Table 2) | preferentially kill cancer over non-cancer cells (HeLa; HeLa versus MCF-10A)
1 | CCOc1ccccc1C(=O)/C=C/c1cc2ccccc2[nH]c1=O [CTR-32, (E)-3-(3-(2-ethoxyphenyl)-3-oxoprop-1-enyl)quinolin-2(1H)-one] | 6.29 ± 1.43 nM | 52 ± 7.35 nM | 30.1 ± 1.61 nM | 12.9 ± 0.35 nM |  |  |  |  |  |  |  |  |  | 
2 | CC(=O)O[C@H]1C(=O)[C@@]2(C)[C@H]([C@H](OC(=O)c3ccccc3)[C@]3(O)C[C@H](OC(=O)[C@H](O)[C@@H](NC(=O)c4ccccc4)c4ccccc4)C(C)=C1C3(C)C)[C@]1(OC(C)=O)CO[C@@H]1C[C@@H]2O [Paclitaxel, reference compound] |  |  |  |  | small increases in the mitotic index | Normal | elements: ↑↑^a | Less but bigger |  |  |  |  |  | 
3 | COc1ccccc1C(=O)/C=C/c1cc2ccccc2[nH]c1=O [CTR-17, (E)-3-(3-(2-Methoxyphenyl)-3-oxoprop-1-enyl)quinolin-2(1H)-one] |  |  |  |  | small increases in the mitotic index | Normal | elements: ↑ | Less but bigger | 360 ± 40 nM | 3490 ± 30 nM | 3950 ± 140 nM | 95% | 330 ± 60 nM | 
4 | COc1ccc2[nH]c(=O)c(/C=C/C(=O)c3ccccc3OC)cc2c1 [CTR-20, (E)-6-Methoxy-3-(3-(2-methoxyphenyl)-3-oxoprop-1-enyl) quinolin-2(1H)-one] |  |  |  |  | small increases in the mitotic index | Normal | elements: ↑ | Less but bigger | 230 nM | 1240 ± 60 nM | 2370 ± 210 nM | 75% | 100 ± 20 nM | ≤ 24 times
5 | COc1ccccc1C(=O)/C=C/c1cc2cccc(OC)c2[nH]c1=O [CTR-21, (E)-8-methoxy-3-(3-(2-methoxyphenyl)-3-oxoprop-1-enyl) quinolin-2(1H)-one] | 5.34 ± 0.89 nM | 37 ± 2.5 nM | 20.3 ± 2.47 nM | 11.9 ± 1.4 nM |  |  |  |  |  |  |  |  |  | 
